In the supplement of paper PMC10307832:

Tests used:
Assay in all cases: relative viability (nuclei count vs DMSO), 5 days (fraction); higher = more cells survive
Doxorubicin + Alpelisib = compound: COc1cccc2c1C(=O)c1c(O)c3c(c(O)c1C2=O)C[C@@](O)(C(=O)CO)C[C@@H]3O[C@H]1C[C@H](N)[C@H](O)[C@H](C)O1 [Doxorubicin] + Cc1nc(NC(=O)N2CCC[C@H]2C(N)=O)sc1-c1ccnc(C(C)(C)C(F)(F)F)c1 [Alpelisib] (partner 2 µM)
Method in brief: (§1)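 Nuclei were stained with Hoechst during a one-step fixation (final 0.05% Triton X-100, 1% formaldehyde, 1 ug/ml Hoechst) carried out 5 days after dosing, then counted on 4× images. The cells, lung cancer lines in 1536-well plates, had been dosed by pin tool the day after seeding with one drug alone or a fixed anchor-drug dose plus five library-drug doses (not always all listed) in √10 steps. Relative viability is the nuclei count in treated wells divided by that in vehicle wells, and each value is the median of duplicate plates.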

BAY61-3606 + Vorinostat = compound: COC1=C(C=C(C=C1)C2=CC3=NC=CN3C(=N2)NC4=C(C=CC=N4)C(=O)N)OC [BAY61-3606] + O=C(CCCCCCC(=O)Nc1ccccc1)NO [Vorinostat] (partner 1 µM)
Method in brief: as §1

BAY61-3606 + Decitabine = compound: COC1=C(C=C(C=C1)C2=CC3=NC=CN3C(=N2)NC4=C(C=CC=N4)C(=O)N)OC [BAY61-3606] + Nc1ncn([C@H]2C[C@H](O)[C@@H](CO)O2)c(=O)n1 [Decitabine] (partner 2 µM)
Method in brief: as §1

Doxorubicin + Lapatinib = compound: COc1cccc2c1C(=O)c1c(O)c3c(c(O)c1C2=O)C[C@@](O)(C(=O)CO)C[C@@H]3O[C@H]1C[C@H](N)[C@H](O)[C@H](C)O1 [Doxorubicin] + CS(=O)(=O)CCNCc1ccc(-c2ccc3ncnc(Nc4ccc(OCc5cccc(F)c5)c(Cl)c4)c3c2)o1 [Lapatinib] (partner 2 µM)
Method in brief: as §1

| Cell Line | relative viability (Doxorubicin + Alpelisib; first compound 0.001 µM) | relative viability (Doxorubicin + Alpelisib; first compound 0.003162 µM) | relative viability (Doxorubicin + Alpelisib; first compound 0.01 µM) | relative viability (Doxorubicin + Alpelisib; first compound 0.03162 µM) | relative viability (Doxorubicin + Alpelisib; first compound 0.1 µM) | relative viability (BAY61-3606 + Vorinostat; first compound 0.02 µM) | relative viability (BAY61-3606 + Vorinostat; first compound 0.06325 µM) | relative viability (BAY61-3606 + Vorinostat; first compound 0.2 µM) | relative viability (BAY61-3606 + Vorinostat; first compound 0.6325 µM) | relative viability (BAY61-3606 + Vorinostat; first compound 2 µM) | relative viability (BAY61-3606 + Decitabine; first compound 0.02 µM) | relative viability (BAY61-3606 + Decitabine; first compound 0.06325 µM) | relative viability (BAY61-3606 + Decitabine; first compound 0.2 µM) | relative viability (BAY61-3606 + Decitabine; first compound 0.6325 µM) | relative viability (BAY61-3606 + Decitabine; first compound 2 µM) | relative viability (Doxorubicin + Lapatinib; first compound 0.001 µM) | relative viability (Doxorubicin + Lapatinib; first compound 0.003162 µM) | relative viability (Doxorubicin + Lapatinib; first compound 0.01 µM) | relative viability (Doxorubicin + Lapatinib; first compound 0.03162 µM) | relative viability (Doxorubicin + Lapatinib; first compound 0.1 µM) |
| --- | --- | --- | --- | --- | --- | --- | --- | --- | --- | --- | --- | --- | --- | --- | --- | --- | --- | --- | --- | --- |
| NCI-H2085 | 0.936 | 1 | 0.992 | 0.739 | 0.686 | 0.885 | 0.766 | 0.796 | 0.839 | 0.811 | 0.531 | 0.528 | 0.555 | 0.531 | 0.53 | 0.745 | 0.85 | 0.763 | 0.652 | 0.608 |
| NCI-H2087 | 1.2 | 1.15 | 1.19 | 0.984 | 0.862 | 0.673 | 1.03 | 0.727 | 0.359 | 0.647 | 0.352 | 0.291 | 0.295 | 0.269 | 0.229 | 0.749 | 1.01 | 0.815 | 0.759 | 0.529 |
| NCI-H2126 | 0.743 | 0.775 | 0.755 | 0.711 | 0.796 | 0.799 | 0.761 | 0.733 | 0.747 | 0.619 | 0.631 | 0.606 | 0.583 | 0.623 | 0.555 | 0.766 | 0.796 | 0.76 | 0.728 | 0.773 |
| NCI-H2170 | 0.896 | 0.966 | 0.727 | 0.682 | 0.877 | 0.835 | 0.752 | 0.842 | 0.83 | 0.739 | 0.449 | 0.529 | 0.485 | 0.462 | 0.429 | 0.263 | 0.264 | 0.259 | 0.266 | 0.285 |
| NCI-H2347 | 0.985 | 0.935 | 0.997 | 0.899 | 1.02 | 0.721 | 0.65 | 0.598 | 0.575 | 0.597 | 0.731 | 0.63 | 0.599 | 0.698 | 0.666 | 0.988 | 1.17 | 0.975 | 0.756 | 0.781 |
| NCI-H2405 | – | 0.728 | 0.82 | 0.663 | 0.406 | 1.17 | 1.02 | 1.15 | 0.968 | 0.824 | 0.798 | 0.78 | 0.703 | 0.779 | 0.643 | – | 1.07 | 1.05 | 0.639 | 0.301 |
| NCI-H3122 | 0.835 | 0.776 | 0.815 | 0.782 | 0.768 | 1.01 | 1.03 | 0.893 | 1.05 | 0.95 | 0.463 | 0.559 | 0.494 | 0.347 | 0.511 | 1.02 | 1 | 1.02 | 1 | 0.958 |
| PC-3 [JPC-3] | 1.02 | 1.02 | 1.05 | 1 | 1.03 | 0.849 | 0.668 | 1.04 | 0.834 | 0.789 | 0.822 | 0.711 | 0.848 | 0.947 | 0.781 | 0.455 | 0.444 | 0.46 | 0.451 | 0.448 |
| PC-14 | 0.892 | 1.01 | 0.963 | 0.986 | 1.01 | 0.808 | 0.799 | 0.845 | 0.87 | 0.667 | – | 0.244 | 0.246 | 0.203 | 0.226 | 0.353 | 0.351 | 0.293 | 0.286 | 0.302 |
| RERF-LC-KJ | 0.815 | 0.885 | 0.893 | 0.675 | 0.719 | 0.701 | 0.684 | 0.704 | 0.881 | 0.614 | 0.766 | 0.717 | 0.654 | 0.659 | 0.556 | 0.905 | 0.817 | 0.863 | 0.759 | 0.815 |
| SK-LU-1 | 1.03 | 0.995 | 0.783 | 0.46 | 0.322 | 0.695 | 0.83 | 0.755 | 0.679 | 0.504 | 0.715 | 0.725 | 0.575 | 0.621 | 0.428 | 0.822 | 1.09 | 0.669 | 0.523 | 0.55 |
| SK-MES-1 | 0.956 | 0.877 | 0.819 | 0.785 | 0.573 | 1.14 | 1.13 | 1.05 | 1.11 | 0.86 | 0.37 | 0.342 | 0.377 | 0.382 | 0.348 | 0.423 | 0.444 | 0.489 | 0.396 | 0.409 |
| SW 1573 | 0.904 | 0.731 | 0.641 | 0.447 | 0.428 | 0.817 | 0.643 | 0.578 | 0.815 | 0.344 | 0.526 | 0.553 | 0.467 | 0.511 | 0.325 | 0.978 | 1.21 | 1.15 | 0.75 | 0.559 |
